Reference: ChEMBL document CHEMBL5360519, “Chemical similarities and differences among inhibitors of nitric oxide synthase, arginase and dimethylarginine dimethylaminohydrolase-1: Implications for the design of novel enzyme inhibitors modulating the nitric oxide pathway” (Bioorg Med Chem, 2022)
Blank lines part the entries; values can stand above or below the compound they belong to.

Columns and labels:
[1] = target: T1, Nitric oxide synthase, inducible (Homo sapiens, UniProt P35228); assay: Inhibition of human iNOS expressed in baculovirus infected Spodoptera frugiperda cell using L-arginine as substrate preincubated for 15 mins followed by substrate addition measured after 15 mins by oxyhaemoglobin assay
T1 sequence (P35228 whole entry): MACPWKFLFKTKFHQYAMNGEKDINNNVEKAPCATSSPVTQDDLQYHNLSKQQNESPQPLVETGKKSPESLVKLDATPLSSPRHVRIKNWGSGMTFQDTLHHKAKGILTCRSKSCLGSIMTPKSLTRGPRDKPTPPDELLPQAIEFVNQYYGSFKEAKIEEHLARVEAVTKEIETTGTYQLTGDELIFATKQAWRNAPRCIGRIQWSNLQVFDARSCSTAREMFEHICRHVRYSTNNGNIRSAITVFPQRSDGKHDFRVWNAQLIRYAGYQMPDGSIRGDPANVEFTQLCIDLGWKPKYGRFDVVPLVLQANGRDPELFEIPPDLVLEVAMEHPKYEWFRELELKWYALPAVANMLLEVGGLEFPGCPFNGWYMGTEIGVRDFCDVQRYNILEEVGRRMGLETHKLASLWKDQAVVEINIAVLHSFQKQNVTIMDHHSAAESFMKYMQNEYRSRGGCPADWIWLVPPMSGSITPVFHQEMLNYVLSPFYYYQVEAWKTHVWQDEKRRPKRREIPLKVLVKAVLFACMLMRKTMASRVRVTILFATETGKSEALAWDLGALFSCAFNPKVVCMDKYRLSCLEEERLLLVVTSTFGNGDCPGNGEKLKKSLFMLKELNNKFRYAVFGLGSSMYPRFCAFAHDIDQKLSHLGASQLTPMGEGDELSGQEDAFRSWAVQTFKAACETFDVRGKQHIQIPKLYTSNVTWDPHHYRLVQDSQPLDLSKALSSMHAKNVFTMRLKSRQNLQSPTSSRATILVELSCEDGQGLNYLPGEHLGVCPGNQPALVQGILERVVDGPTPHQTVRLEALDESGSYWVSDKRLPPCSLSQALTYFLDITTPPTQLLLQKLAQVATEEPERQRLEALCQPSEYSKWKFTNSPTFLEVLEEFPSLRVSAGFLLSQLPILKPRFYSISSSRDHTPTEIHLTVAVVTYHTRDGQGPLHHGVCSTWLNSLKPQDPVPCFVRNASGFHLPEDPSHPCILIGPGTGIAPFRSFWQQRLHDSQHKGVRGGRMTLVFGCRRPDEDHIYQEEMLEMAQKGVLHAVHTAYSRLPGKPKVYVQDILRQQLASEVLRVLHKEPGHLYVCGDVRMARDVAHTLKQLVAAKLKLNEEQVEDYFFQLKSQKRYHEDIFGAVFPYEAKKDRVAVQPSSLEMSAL

Nitric oxide synthase 1 [2] = target: T2, Nitric oxide synthase 1 (Homo sapiens, UniProt P29475); assay: Inhibition of human nNOS expressed in baculovirus infected Spodoptera frugiperda cell using L-arginine as substrate preincubated for 15 mins followed by substrate addition measured after 15 mins by oxyhaemoglobin assay
T2 sequence (P29475 whole entry): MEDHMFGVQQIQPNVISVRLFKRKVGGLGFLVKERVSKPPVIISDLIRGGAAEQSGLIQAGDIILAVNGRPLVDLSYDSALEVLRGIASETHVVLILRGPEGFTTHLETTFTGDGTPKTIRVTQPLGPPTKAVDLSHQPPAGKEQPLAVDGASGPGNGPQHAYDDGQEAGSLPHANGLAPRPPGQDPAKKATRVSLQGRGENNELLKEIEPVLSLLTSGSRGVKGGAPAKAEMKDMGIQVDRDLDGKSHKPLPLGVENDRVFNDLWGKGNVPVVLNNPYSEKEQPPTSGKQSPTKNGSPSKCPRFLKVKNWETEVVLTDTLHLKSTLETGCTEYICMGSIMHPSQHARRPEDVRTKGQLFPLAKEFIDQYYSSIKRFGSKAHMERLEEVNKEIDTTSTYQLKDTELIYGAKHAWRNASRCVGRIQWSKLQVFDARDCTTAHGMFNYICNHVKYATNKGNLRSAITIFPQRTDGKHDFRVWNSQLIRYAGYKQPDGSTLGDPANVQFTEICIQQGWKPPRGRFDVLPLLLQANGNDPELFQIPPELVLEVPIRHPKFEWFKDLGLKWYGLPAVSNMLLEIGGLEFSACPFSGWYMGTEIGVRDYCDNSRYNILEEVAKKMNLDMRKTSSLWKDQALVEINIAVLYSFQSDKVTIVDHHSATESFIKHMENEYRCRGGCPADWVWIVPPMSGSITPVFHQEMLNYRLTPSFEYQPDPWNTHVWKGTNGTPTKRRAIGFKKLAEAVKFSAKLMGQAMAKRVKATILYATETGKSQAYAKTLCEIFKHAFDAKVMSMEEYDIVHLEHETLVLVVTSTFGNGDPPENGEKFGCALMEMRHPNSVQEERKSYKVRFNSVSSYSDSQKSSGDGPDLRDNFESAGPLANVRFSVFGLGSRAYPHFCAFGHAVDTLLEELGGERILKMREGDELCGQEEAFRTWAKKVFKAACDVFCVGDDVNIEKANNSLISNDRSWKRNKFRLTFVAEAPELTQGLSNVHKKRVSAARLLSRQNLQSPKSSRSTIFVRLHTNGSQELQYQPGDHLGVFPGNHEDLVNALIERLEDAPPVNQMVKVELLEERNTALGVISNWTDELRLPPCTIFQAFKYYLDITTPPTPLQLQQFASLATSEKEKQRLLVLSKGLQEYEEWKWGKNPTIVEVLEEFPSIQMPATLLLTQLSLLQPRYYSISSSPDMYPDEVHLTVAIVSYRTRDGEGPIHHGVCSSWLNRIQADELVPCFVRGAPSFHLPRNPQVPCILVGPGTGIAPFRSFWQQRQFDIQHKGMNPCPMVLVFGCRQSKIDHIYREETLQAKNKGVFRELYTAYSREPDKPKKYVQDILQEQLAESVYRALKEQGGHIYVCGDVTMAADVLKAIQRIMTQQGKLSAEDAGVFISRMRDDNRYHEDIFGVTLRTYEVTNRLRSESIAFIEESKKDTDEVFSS

Nitric oxide synthase 3 [3] = target: T3, Nitric oxide synthase 3 (Homo sapiens, UniProt P29474); assay: Inhibition of human eNOS expressed in baculovirus infected Spodoptera frugiperda cell using L-arginine as substrate preincubated for 15 mins followed by substrate addition measured after 15 mins by oxyhaemoglobin assay
T3 sequence (P29474 whole entry): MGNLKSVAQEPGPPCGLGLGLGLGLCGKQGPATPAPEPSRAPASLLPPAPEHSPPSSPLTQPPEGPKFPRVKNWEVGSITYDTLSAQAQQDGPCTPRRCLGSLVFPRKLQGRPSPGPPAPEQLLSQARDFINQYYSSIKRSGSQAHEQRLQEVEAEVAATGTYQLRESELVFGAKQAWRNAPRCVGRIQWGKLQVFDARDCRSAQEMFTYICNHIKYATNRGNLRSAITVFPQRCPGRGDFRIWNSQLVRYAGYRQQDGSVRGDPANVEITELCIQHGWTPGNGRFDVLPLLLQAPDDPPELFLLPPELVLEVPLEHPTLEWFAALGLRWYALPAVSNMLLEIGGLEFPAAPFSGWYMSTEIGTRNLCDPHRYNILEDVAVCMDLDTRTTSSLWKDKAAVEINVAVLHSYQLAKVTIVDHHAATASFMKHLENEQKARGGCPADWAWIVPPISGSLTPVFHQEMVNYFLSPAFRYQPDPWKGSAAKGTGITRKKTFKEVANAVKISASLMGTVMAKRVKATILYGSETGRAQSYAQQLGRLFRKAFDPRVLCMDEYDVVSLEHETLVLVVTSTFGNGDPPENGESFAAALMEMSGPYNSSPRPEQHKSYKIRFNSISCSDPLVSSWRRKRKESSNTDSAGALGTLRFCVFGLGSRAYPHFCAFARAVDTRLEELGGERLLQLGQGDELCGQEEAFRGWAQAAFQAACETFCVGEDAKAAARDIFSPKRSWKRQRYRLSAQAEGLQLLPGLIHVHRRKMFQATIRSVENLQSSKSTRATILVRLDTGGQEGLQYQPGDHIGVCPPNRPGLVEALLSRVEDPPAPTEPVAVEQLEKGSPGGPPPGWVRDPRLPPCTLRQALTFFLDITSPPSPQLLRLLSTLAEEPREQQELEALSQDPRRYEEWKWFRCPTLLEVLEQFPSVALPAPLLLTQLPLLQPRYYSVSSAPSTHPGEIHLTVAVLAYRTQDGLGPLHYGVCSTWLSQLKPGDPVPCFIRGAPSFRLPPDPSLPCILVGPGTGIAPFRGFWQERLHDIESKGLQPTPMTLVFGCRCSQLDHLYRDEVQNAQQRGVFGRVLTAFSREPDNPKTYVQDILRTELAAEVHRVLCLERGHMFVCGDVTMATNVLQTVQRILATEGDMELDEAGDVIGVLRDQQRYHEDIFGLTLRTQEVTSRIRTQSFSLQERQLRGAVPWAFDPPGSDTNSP

[4] = Inhibition of bovine nNOS; design: species or system Bos taurus
Nitric oxide synthase 3 [5] = target: T4, Nitric oxide synthase 3 (Bos taurus, UniProt P29473); assay: Inhibition of bovine eNOS
T4 sequence (P29473 whole entry): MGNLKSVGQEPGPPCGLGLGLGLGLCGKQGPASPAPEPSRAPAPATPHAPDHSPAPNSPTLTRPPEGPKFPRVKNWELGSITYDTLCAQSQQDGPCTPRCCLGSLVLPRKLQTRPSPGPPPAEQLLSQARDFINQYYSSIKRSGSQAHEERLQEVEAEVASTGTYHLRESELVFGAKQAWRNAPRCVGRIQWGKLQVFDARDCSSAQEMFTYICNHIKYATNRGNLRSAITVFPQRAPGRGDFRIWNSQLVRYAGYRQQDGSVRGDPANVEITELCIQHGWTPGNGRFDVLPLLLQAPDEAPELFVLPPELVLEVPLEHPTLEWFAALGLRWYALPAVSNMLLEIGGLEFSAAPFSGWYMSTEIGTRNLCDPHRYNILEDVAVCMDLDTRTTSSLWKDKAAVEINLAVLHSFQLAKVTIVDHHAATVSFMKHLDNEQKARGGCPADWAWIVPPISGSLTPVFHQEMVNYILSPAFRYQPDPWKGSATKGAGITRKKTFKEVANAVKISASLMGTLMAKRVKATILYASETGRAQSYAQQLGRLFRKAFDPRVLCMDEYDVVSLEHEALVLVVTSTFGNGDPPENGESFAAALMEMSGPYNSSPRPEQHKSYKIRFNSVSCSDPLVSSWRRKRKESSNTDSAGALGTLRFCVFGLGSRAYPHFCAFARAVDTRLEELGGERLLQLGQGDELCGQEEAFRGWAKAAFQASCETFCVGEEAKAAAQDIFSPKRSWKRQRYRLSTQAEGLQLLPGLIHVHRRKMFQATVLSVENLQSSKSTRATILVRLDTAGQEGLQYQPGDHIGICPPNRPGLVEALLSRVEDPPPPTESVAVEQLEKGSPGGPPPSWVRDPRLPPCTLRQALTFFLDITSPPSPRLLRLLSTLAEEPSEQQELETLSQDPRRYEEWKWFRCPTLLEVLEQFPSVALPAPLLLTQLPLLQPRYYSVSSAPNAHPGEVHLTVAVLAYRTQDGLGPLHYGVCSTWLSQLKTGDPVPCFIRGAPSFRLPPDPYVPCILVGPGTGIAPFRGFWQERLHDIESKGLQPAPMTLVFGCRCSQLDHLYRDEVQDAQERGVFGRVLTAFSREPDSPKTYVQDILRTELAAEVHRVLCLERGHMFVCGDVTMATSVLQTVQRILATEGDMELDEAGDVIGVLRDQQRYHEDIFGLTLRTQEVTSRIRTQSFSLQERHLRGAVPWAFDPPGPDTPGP

[6] = target: T5, Nitric oxide synthase, inducible (Mus musculus, UniProt P29477); assay: Inhibition of mouse iNOS
T5 sequence (P29477 whole entry): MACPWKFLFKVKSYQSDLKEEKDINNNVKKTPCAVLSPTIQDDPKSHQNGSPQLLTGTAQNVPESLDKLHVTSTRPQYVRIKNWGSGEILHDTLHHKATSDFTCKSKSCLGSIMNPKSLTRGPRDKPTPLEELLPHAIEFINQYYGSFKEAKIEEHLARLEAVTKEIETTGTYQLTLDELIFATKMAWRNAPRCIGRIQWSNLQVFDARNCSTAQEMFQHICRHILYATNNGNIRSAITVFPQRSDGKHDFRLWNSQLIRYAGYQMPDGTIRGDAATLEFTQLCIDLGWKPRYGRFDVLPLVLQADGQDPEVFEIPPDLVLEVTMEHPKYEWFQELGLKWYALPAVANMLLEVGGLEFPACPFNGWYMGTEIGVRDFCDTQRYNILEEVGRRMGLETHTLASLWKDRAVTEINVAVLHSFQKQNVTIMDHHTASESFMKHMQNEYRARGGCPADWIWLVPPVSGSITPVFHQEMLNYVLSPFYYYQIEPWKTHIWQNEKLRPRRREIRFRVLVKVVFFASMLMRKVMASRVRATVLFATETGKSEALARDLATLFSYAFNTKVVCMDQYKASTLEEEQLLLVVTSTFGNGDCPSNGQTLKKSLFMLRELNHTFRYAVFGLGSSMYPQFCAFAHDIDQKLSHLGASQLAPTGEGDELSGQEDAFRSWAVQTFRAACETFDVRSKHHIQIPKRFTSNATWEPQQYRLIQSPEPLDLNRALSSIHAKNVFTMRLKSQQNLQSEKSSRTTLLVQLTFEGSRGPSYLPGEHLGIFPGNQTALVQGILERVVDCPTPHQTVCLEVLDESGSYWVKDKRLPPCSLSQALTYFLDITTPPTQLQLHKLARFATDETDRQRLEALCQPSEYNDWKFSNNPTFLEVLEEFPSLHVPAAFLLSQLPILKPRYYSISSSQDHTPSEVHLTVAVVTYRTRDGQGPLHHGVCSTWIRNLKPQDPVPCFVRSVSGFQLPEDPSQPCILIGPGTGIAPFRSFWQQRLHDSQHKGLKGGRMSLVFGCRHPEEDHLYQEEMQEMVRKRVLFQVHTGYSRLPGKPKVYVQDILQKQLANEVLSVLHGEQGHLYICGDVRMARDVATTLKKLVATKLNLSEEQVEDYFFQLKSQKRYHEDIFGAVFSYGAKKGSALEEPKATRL

Nitric oxide synthase 1 [7] = target: T2, Nitric oxide synthase 1; assay: Inhibition of nNOS in human DLD-1 cells assessed as reduction of L-[14C]arginine to L-[14C]citrulline conversion; format: cell-based
Nitric oxide synthase 3 [8] = target: T3, Nitric oxide synthase 3; assay: Inhibition of eNOS in human DLD-1 cells assessed as reduction of L-[14C]arginine to L-[14C]citrulline conversion; format: cell-based
[9] = target: T1, Nitric oxide synthase, inducible; assay: Inhibition of iNOS in human DLD-1 cells assessed as reduction of L-[14C]arginine to L-[14C]citrulline conversion; format: cell-based
[10] = target: N(G),N(G)-dimethylarginine dimethylaminohydrolase 1 (Homo sapiens, UniProt O94760); assay: Inhibition of recombinant human DDAH1 expressed in HEK293 cells using ADMA as substrate preincubated for 5 mins
N(G),N(G)-dimethylarginine dimethylaminohydrolase 1, sequence (O94760 whole entry): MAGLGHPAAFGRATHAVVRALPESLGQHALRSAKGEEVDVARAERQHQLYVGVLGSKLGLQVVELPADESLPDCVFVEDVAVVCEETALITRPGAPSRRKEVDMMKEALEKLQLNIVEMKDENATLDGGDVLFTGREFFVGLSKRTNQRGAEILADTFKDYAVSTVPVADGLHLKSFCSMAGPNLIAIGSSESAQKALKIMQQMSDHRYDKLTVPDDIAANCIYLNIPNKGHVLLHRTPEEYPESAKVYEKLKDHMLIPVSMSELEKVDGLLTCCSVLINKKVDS

[11] = target: T5, Nitric oxide synthase, inducible; assay: Inhibition of iNOS in mouse RAW264.7 cells assessed as inhibition constant in presence of NADPH; format: cell-based
Nitric oxide synthase 1 [12] = target: T2, Nitric oxide synthase 1; assay: Inhibition of human nNOS
[13] = target: T1, Nitric oxide synthase, inducible; assay: Inhibition of human iNOS
Homo sapiens = organism: Homo sapiens; assay: Selectivity index, ratio of IC50 for human eNOS to IC50 for human iNOS
Nitric oxide synthase 3 [14] = target: T3, Nitric oxide synthase 3
Nitric oxide synthase 1 [15] = target: Nitric oxide synthase 1 (Mus musculus, UniProt Q9Z0J4); assay: Inhibition of mouse nNOS
Nitric oxide synthase 1 (Mus musculus, UniProt Q9Z0J4), sequence (Q9Z0J4 whole entry): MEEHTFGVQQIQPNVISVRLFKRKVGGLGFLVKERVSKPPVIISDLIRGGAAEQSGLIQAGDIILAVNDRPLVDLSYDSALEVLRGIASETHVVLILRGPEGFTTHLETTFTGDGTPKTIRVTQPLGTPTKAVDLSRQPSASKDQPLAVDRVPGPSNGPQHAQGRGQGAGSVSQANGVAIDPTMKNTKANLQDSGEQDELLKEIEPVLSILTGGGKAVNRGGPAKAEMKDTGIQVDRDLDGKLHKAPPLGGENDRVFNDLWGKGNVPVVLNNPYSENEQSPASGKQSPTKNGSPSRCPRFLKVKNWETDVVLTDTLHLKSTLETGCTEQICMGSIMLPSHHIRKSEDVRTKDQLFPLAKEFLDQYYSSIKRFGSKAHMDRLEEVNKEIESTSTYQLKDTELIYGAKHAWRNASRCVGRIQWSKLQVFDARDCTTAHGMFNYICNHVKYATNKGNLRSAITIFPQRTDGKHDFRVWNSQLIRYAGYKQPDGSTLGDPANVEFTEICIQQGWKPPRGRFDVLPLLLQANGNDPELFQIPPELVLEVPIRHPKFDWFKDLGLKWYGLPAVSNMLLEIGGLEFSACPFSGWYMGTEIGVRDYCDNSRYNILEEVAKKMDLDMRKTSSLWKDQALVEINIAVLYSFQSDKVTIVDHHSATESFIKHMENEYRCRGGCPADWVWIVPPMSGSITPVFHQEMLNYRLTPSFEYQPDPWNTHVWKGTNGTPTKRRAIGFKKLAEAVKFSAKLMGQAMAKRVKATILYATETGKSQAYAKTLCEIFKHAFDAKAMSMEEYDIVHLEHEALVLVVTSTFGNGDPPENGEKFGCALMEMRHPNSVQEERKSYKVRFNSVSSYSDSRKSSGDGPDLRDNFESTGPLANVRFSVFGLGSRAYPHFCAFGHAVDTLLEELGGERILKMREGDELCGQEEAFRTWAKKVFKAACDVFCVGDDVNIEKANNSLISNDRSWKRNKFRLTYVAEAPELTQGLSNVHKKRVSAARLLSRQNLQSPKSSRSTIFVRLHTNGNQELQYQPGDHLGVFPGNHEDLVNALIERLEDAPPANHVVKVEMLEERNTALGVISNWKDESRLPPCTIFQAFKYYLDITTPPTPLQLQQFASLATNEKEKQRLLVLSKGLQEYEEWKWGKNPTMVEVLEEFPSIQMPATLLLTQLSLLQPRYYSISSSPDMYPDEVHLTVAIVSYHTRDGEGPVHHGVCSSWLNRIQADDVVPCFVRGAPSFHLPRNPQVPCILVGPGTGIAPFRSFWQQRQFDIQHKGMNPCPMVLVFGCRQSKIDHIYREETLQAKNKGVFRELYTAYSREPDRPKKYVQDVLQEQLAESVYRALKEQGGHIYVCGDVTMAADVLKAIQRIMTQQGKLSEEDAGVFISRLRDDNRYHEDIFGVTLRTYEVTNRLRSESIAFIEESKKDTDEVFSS

Nitric oxide synthase 1 [16] = target: T2, Nitric oxide synthase 1; assay: Inhibition of human nNOS assessed as dissociation constant
Nitric oxide synthase 3 [17] = target: T3, Nitric oxide synthase 3; assay: Inhibition of human eNOS assessed as inhibition constant
[18] = target: T1, Nitric oxide synthase, inducible; assay: Inhibition of human iNOS assessed as inhibition constant
Nitric oxide synthase 1 [19] = target: T2, Nitric oxide synthase 1; assay: Inhibition of nNOS (unknown origin) assessed as reduction of L-[14C]arginine to L-[14C]citrulline conversion
[20] = target: T1, Nitric oxide synthase, inducible; assay: Inhibition of iNOS (unknown origin) assessed as reduction of L-[14C]arginine to L-[14C]citrulline conversion

Structure (SMILES): N=C(NN)NO
IC50 [4]: 17 µM | IC50 (Nitric oxide synthase 3 [5]): 23 µM | IC50 [6]: 23 µM

Structure (SMILES): COCCNC(=N)NCCC[C@H](N)C(=O)NO
IC50 [10]: 131 µM

Structure (SMILES): N=C(NCCC[C@H](N)C(=O)O)N[N+](=O)[O-] [NITROARGININE]
Ki [11]: 4.4 µM

Structure (SMILES): CC(=N)NCCCC[C@H](N)C(O)CO (some centres undefined)
IC50 (Nitric oxide synthase 1 [12]): 150 µM | IC50 [13]: 12 µM | Ratio IC50 (Homo sapiens): > 700 | IC50 (Nitric oxide synthase 3 [14]): 8420 µM

Structure (SMILES): CCSC(=N)NCCC[C@H](N)C(=O)O
Kd (Nitric oxide synthase 1 [16]): 0.001 µM | Ki (Nitric oxide synthase 3 [17]): 0.024 µM | Ki [18]: 0.017 µM | IC50 (Nitric oxide synthase 1 [12]): 0.001 µM

Structure (SMILES): CCCSC(=N)N
Ki (Nitric oxide synthase 1 [7]): 0.029 µM | Ki (Nitric oxide synthase 3 [8]): 0.67 µM | Ki [9]: 0.24 µM

More lines, now with the values ahead:

IC50 [1]: 2.19 µM | IC50 (Nitric oxide synthase 1 [2]): 177 µM | IC50 (Nitric oxide synthase 3 [3]): 177 µM
Structure (SMILES): CC(=N)NCCSCC[C@H](N)C(=O)O [GW-274150]

Ki (Nitric oxide synthase 1 [7]): 14 µM | Ki (Nitric oxide synthase 3 [8]): 31 µM | Ki [9]: 11 µM
Structure (SMILES): CCCCSC(=N)N

IC50 [10]: 3 µM
Structure (SMILES): COCCNC(=N)NCCC[C@H](N)C(=O)NS(C)(=O)=O

Ki (Nitric oxide synthase 1 [7]): 0.63 µM | Ki (Nitric oxide synthase 3 [8]): 23 µM | Ki [9]: 5.6 µM
Structure (SMILES): N=C(N)SCc1ccccc1 [BENZYL CARBAMIMIDOTHIOATE]

IC50 (Nitric oxide synthase 1 [15]): 3 µM
Structure (SMILES): CC(=N)NCCC[C@H](N)C(=O)O [L-NIO]

IC50 (Nitric oxide synthase 1 [19]): 300 µM | IC50 [20]: 50 µM
Structure (SMILES): NC(N)=NCCC[C@H](N)B(O)O
